Results on 13 compounds are retold here after article PMC7588843 (Bioactive Materials, 2020).

The IC50 is the concentration needed to halve the response being measured. In general, AUC(0-t) refers to the area under the concentration-time curve up to a stated or last time point. Higher therefore signals high exposure. As usually defined, the CL/F is clearance divided by bioavailability, as obtained after extravascular dosing. As usually defined, the Cmax is the maximum level reached in the sampled fluid or tissue. As usually defined, the MRT is the average time that molecules of a dose stay in the body. As usually defined, the Vd/F is the volume of distribution divided by bioavailability. Usually Tmax stands for the time from dosing to the highest level.

In brackets after ≈: the same amount, converted by molar mass.

Data set [1] relates to human erythrocytes. The experiment in a line: Hemolytic activity in the presence of 10 μM FP. It counts as cell-based. The note with it: for Hemolysis of human erythrocytes in the presence of FP: 50 and 100 μM, 2 h, 37 °C.
For data set [2], the system named is P. falciparum W2 (CQ-resistant) strain. The experiment in a line: P. falciparum drug susceptibility assay. It counts as cell-based. The following applies: for SIW2: IC50(NHDF)/IC50(W2); for IC50: Plasmodium falciparum, W2, 72 h, read-out: P. falciparum IC50 W2; for RI (resistance index): ratio of IC50 against W2 and D10 strains.
In data set [3] the test system is P. falciparum D10 (CQ-sensitive) strain. Put plainly: P. falciparum drug susceptibility assay. The format is cell-based. The note with it: for IC50: Plasmodium falciparum, D10, 72 h, read-out: P. falciparum IC50 D10; for SID10: IC50(NHDF)/IC50(D10).
Data set [4] in a line: Cytotoxic activity test. The format is cell-based, human. The following applies: human, NHDF cells.
Data set [5] concerns human erythrocytes. The experiment in a line: Hemolytic activity without FP. The format is cell-based. The note with it: 50 and 100 μM, 2 h, 37 °C.
In data set [6] the test system is NHDF cells. Put plainly: Cytotoxic activity test. The following applies: 24 and 48 h, MTT, up to twice the IC50 for P. falciparum. It counts as cell-based, human.
A short description of data set [7]: In vivo pharmacokinetic evaluation in mice.
The mark [8] stands for this setting: male, CD-1, mouse, plasma, po, 0.02 mg/kg.

On to `CCN(CC)CCCC(C)Nc1ccnc2cc(Cl)ccc12` (stereo not shown) [CQ, chloroquine diphosphate, reference compound], for which the “Hemolysis of human erythrocytes in the presence of FP” value (shortened to “Hemolysis … of FP”) in data set [1] was “drastically increased the percentage of hemolysis”. In addition, in data set [2], the SIW2 turned out to be 80.5 and the 50% inhibitory concentration (IC50) stood at 0.262 ± 0.102 µg/mL. Moreover, the half-inhibitory concentration (IC50) in data set [3] amounted to 0.0184 ± 0.008 µg/mL.
Consider `c1ccc2c(c1)[nH]c1ncccc12` [Compound 1, 9H-1-azacarbazole], for which the IC50 in data set [2] and in data set [3] was more than 5 µg/mL in each case.
For the compound `c1ccc2c(c1)[nH]c1cnccc12` [Compound 2, 9H-2-azacarbazole], the IC50 in data set [4] is 40 ± 1.11 µg/mL (≈ 238 µM). Further, in data set [1], the “Hemolysis … of FP” value is on record as “drastically increased the percentage of hemolysis”. Moreover, the “Hemolysis of human erythrocytes without FP” value in data set [5] is “None of the examined agents caused significant lysis”. In data set [2], the SIW2 was determined as 10.9, the IC50 stood at 3.67 ± 0.708 µg/mL (≈ 21.8 µM) and the “RI (resistance index)” value worked out at 1.1. Moreover, in data set [3], the SID10 stood at 12.0 and the half-maximal inhibitory concentration (IC50) turned out to be 3.33 ± 0.742 µg/mL (≈ 19.8 µM).
For `c1ccc2c(c1)[nH]c1ccncc12` [Compound 3, 9H-3-azacarbazole], the NHDF cell viability entry in data set [6] is “negligible effect on cell viability”. Also, in data set [4], 32 ± 1.43 µg/mL (≈ 191 µM) corresponded to half-maximal inhibition (IC50). Besides, the “Hemolysis … of FP” value in data set [1] is on record as “drastically increased the percentage of hemolysis”. Besides, in data set [7] (setting [8]), the exposure AUC(0-t) is 1 ng·h/mL, the CL/F turned out to be 194 mL/min/kg, the peak level (Cmax) was 4.67 ng/mL and the mean residence time MRT was 1.28 h. Besides, in data set [7] (setting [8]), the Vd/F was 19.7 L/kg and the k el is 0.000165 s⁻¹. Further, the time of peak concentration (Tmax) in data set [7] (male, CD-1, mouse, plasma, po, 0.02 mg/kg, tmax, mice, i.g., 0.02 mg/kg in 3-NE) is not above 5 min. Besides, in data set [7] (mice, i.g., 0.02 mg/kg in 3-NE), the “time plasma concentrations detectable after administration” value is listed as “at least 8 h”. In addition, the t0.5 in data set [7] (mice, i.g., 0.02 mg/kg in 3-NE, plasma, 0.02 mg/kg) is reported as 70.33 min. Besides, in data set [5], the “Hemolysis of human erythrocytes without FP” value is listed as “None of the examined agents caused significant lysis”. Further, in data set [2], the SIW2 is 14.4, the IC50 turned out to be 2.22 ± 0.752 µg/mL (≈ 13.2 µM) and the “RI (resistance index)” value turned out to be 1.1. Besides, in data set [3], the SID10 is recorded as 16.4 and the IC50 was 1.95 ± 0.263 µg/mL (≈ 11.6 µM).
Take `Cc1cccc2c1[nH]c1ncccc12` [Compound 4, 8-methyl-9H-1-azacarbazole]: the IC50 in data set [2] and in data set [3] was more than 5 µg/mL each time.
For the compound `Cc1ccc2[nH]c3ncccc3c2c1` [Compound 5, 6-methyl-9H-1-azacarbazole], the concentration for half-maximal inhibition (IC50) in data set [2] and in data set [3] was more than 5 µg/mL in each case.
For `Cc1ccn(C)c2nc3ccccc3c1-2` [Compound 6, 1,4-dimethyl-1H-1-azacarbazole], in data set [4], the 50% inhibitory concentration (IC50) stood at 11.8 ± 0.144 µg/mL (≈ 59.9 µM). Also, in data set [1], the “Hemolysis with FP compared with CQ-FP, 50 μM” value was “less hemolytic than CQ-FP complexes” and the “Hemolysis … of FP” value is “drastically increased the percentage of hemolysis”. Besides, the “Hemolysis of human erythrocytes without FP” value in data set [5] is on record as “None of the examined agents caused significant lysis”. In addition, in data set [2], the SIW2 is 2.8, the IC50 came to 4.18 ± 1.04 µg/mL (≈ 21.3 µM) and the “RI (resistance index)” value was 0.9. In data set [3], the SID10 is recorded as 2.6 and the 50% inhibitory concentration (IC50) amounted to 4.42 ± 0.458 µg/mL (≈ 22.5 µM).
For the compound `c1cnc2[nH]c3ncccc3c2c1` [Compound 7, 9H-1,8-diazacarbazole], the IC50 in data set [2] and in data set [3] was more than 5 µg/mL each time.
On to `c1cc2c(cn1)[nH]c1cnccc12` [Compound 8, 9H-2,7-diazacarbazole], for which the IC50 in data set [2] and in data set [3] was more than 5 µg/mL throughout.
For the compound `c1cnc2c(c1)[nH]c1ncccc12` [Compound 9, 9H-1,5-diazacarbazole], the IC50 in data set [2] and in data set [3] was more than 5 µg/mL each time.
Regarding `c1cnc2c(c1)[nH]c1cccnc12` [Compound 10, 9H-4,5-diazacarbazole], the IC50 in data set [2] and in data set [3] was more than 5 µg/mL in each case.
On to `Cn1cccc2c3cccnc3nc1-2` [Compound 11, 1-methyl-1H-1,8-diazacarbazole], for which the 50% inhibitory concentration (IC50) in data set [2] and in data set [3] was more than 5 µg/mL each time.
Take `Cn1cccc2nc3cccnc3c1-2` [Compound 12, 4-methyl-4H-4,5-diazacarbazole]: the half-maximal inhibitory concentration (IC50) in data set [4] is 42.8 ± 3.31 µg/mL (≈ 234 µM). Also, in data set [1], the “Hemolysis with FP compared with CQ-FP, 50 μM” value is on record as “less hemolytic than CQ-FP complexes”. Further, the “Hemolysis with FP compared with CQ-FP, 100 μM” value in data set [1] (100 μM) was “less hemolytic than CQ-FP complexes”. The “Hemolysis of human erythrocytes without FP” value in data set [5] is “None of the examined agents caused significant lysis”. Besides, in data set [2], the SIW2 is recorded as 10.7, the half-inhibitory concentration (IC50) was 3.99 ± 0.269 µg/mL (≈ 21.8 µM) and the “RI (resistance index)” value stood at 1.3. Besides, in data set [3], the SID10 was 13.5 and the half-inhibitory concentration (IC50) turned out to be 3.16 ± 0.621 µg/mL (≈ 17.3 µM).
